Assay results as given in ChEMBL document CHEMBL4665836, “Overcoming β-Lactam resistance in Pseudomonas aeruginosa using non-canonical tobramycin-based antibiotic adjuvants” (2020).

Tests used:
Assay type in all cases: functional
Pseudomonas aeruginosa [1] = test: Potentiation of imipenem-induced antibacterial activity against carbapenem-resistant Pseudomonas aeruginosa 86052 clinical isolate assessed as fold reduction in imipenem MIC at 8 uM in presence of beta-lactamase inhibitor, rele-bactam
Pseudomonas aeruginosa [2] = test: Potentiation of imipenem-induced antibacterial activity against carbapenem-resistant Pseudomonas aeruginosa 88949 clinical isolate assessed as fold reduction in imipenem MIC at 8 uM in presence of beta-lactamase inhibitor, rele-bactam
Pseudomonas aeruginosa [3] = test: Potentiation of imipenem-induced antibacterial activity against carbapenem-resistant Pseudomonas aeruginosa 109084 clinical isolate assessed as fold reduction in imipenem MIC at 8 uM in presence of beta-lactamase inhibitor, rele-bactam
Pseudomonas aeruginosa [4] = test: Potentiation of aztreonam-induced antibacterial activity against carbapenem-resistant Pseudomonas aeruginosa 86052 clinical isolate assessed as fold reduction in aztreonam MIC at 8 uM in presence of beta-lactamase inhibitor, avi-bactam
Pseudomonas aeruginosa [5] = test: Potentiation of aztreonam-induced antibacterial activity against carbapenem-resistant Pseudomonas aeruginosa 108590 clinical isolate assessed as fold reduction in aztreonam MIC at 8 uM in presence of beta-lactamase inhibitor, avi-bactam
Pseudomonas aeruginosa [6] = test: Potentiation of aztreonam-induced antibacterial activity against carbapenem-resistant Pseudomonas aeruginosa 109084 clinical isolate assessed as fold reduction in aztreonam MIC at 8 uM in presence of beta-lactamase inhibitor, avi-bactam
Pseudomonas aeruginosa [7] = test: Potentiation of ceftazidime-induced antibacterial activity against carbapenem-resistant Pseudomonas aeruginosa 108590 clinical isolate assessed as fold reduction in ceftazidime MIC at 8 uM in presence of beta-lactamase inhibitor, avi-bactam
Pseudomonas aeruginosa [8] = test: Potentiation of imipenem-induced antibacterial activity against carbapenem-resistant Pseudomonas aeruginosa PAO200 harboring mexAB-oprM efflux deficient mutant assessed as imipenem MIC at 8 uM by checkerboard assay (reference value: 4 ug/ml)
Pseudomonas aeruginosa [9] = test: Potentiation of imipenem-induced antibacterial activity against carbapenem-resistant Pseudomonas aeruginosa 107092 clinical isolate assessed as imipenem MIC at 8 uM by checkerboard assay (reference value: 64 ug/ml)
Pseudomonas aeruginosa [10] = test: Potentiation of imipenem-induced antibacterial activity against carbapenem-resistant Pseudomonas aeruginosa 101885 clinical isolate assessed as imipenem MIC at 8 uM by checkerboard assay (reference value: 4 ug/ml)
Pseudomonas aeruginosa [11] = test: Potentiation of imipenem-induced antibacterial activity against carbapenem-resistant Pseudomonas aeruginosa 86052 clinical isolate assessed as imipenem MIC at 8 uM by checkerboard assay (reference value: 32 ug/ml)
Pseudomonas aeruginosa [12] = test: Potentiation of imipenem-induced antibacterial activity against carbapenem and colistin-resistant Pseudomonas aeruginosa 91433 clinical isolate assessed as imipenem MIC at 8 uM by checkerboard assay (reference value: 8 ug/ml)
Pseudomonas aeruginosa [13] = test: Potentiation of imipenem-induced antibacterial activity against carbapenem-resistant Pseudomonas aeruginosa 264-104354 clinical isolate assessed as imipenem MIC at 8 uM by checkerboard assay (reference value: 16 ug/ml)
Pseudomonas aeruginosa [14] = test: Potentiation of imipenem-induced antibacterial activity against carbapenem-resistant Pseudomonas aeruginosa 262-101856 clinical isolate assessed as imipenem MIC at 8 uM by checkerboard assay (reference value: 32 ug/ml)
Pseudomonas aeruginosa [15] = test: Potentiation of imipenem-induced antibacterial activity against carbapenem-resistant Pseudomonas aeruginosa 260-97103 clinical isolate assessed as imipenem MIC at 8 uM by checkerboard assay (reference value: 16 ug/ml)
Pseudomonas aeruginosa [16] = test: Potentiation of imipenem-induced antibacterial activity against wild-type Pseudomonas aeruginosa PAO1 assessed as imipenem MIC at 8 uM by checkerboard assay (reference value: 4 ug/ml)
Pseudomonas aeruginosa [17] = test: Potentiation of ceftazidime-induced antibacterial activity against carbapenem-resistant Pseudomonas aeruginosa PAO750 harboring and mexAB-oprM/mexCD-oprJ/mexEF-oprN/mexJK/mexXY/opmH efflux deficient mutant assessed as ceftazidime MIC at 8 uM by checkerboard assay (reference value: 0.5 ug/ml)
Pseudomonas aeruginosa [18] = test: Potentiation of ceftazidime-induced antibacterial activity against carbapenem-resistant Pseudomonas aeruginosa 109084 clinical isolate assessed as ceftazidime MIC at 8 uM by checkerboard assay (reference value: 64 ug/ml)
Pseudomonas aeruginosa [19] = test: Potentiation of ceftazidime-induced antibacterial activity against carbapenem-resistant Pseudomonas aeruginosa 107092 clinical isolate assessed as ceftazidime MIC at 8 uM by checkerboard assay (reference value: 128 ug/ml)
Pseudomonas aeruginosa [20] = test: Potentiation of ceftazidime-induced antibacterial activity against carbapenem-resistant Pseudomonas aeruginosa 101885 clinical isolate assessed as ceftazidime MIC at 8 uM by checkerboard assay (reference value: 8 ug/ml)
Pseudomonas aeruginosa [21] = test: Potentiation of ceftazidime-induced antibacterial activity against carbapenem-resistant Pseudomonas aeruginosa 100036 clinical isolate assessed as ceftazidime MIC at 8 uM by checkerboard assay (reference value: 8 ug/ml)
Pseudomonas aeruginosa [22] = test: Potentiation of ceftazidime-induced antibacterial activity against carbapenem-resistant Pseudomonas aeruginosa 264-104354 clinical isolate assessed as ceftazidime MIC at 8 uM by checkerboard assay (reference value: 128 ug/ml)
Pseudomonas aeruginosa [23] = test: Potentiation of ceftazidime-induced antibacterial activity against carbapenem-resistant Pseudomonas aeruginosa 260-97103 clinical isolate assessed as ceftazidime MIC at 8 uM by checkerboard assay (reference value: 32 ug/ml)
Pseudomonas aeruginosa [24] = test: Potentiation of aztreonam-induced antibacterial activity against carbapenem-resistant Pseudomonas aeruginosa 109084 clinical isolate assessed as aztreonam MIC at 8 uM by checkerboard assay (reference value: 64 ug/ml)
Pseudomonas aeruginosa [25] = test: Potentiation of aztreonam-induced antibacterial activity against carbapenem-resistant Pseudomonas aeruginosa 88949 clinical isolate assessed as aztreonam MIC at 8 uM by checkerboard assay (reference value: 32 ug/ml)
Pseudomonas aeruginosa [26] = test: Potentiation of aztreonam-induced antibacterial activity against carbapenem and colistin-resistant Pseudomonas aeruginosa 101243 clinical isolate assessed as aztreonam MIC at 8 uM by checkerboard assay (reference value: 32 ug/ml)
Pseudomonas aeruginosa [27] = test: Potentiation of aztreonam-induced antibacterial activity against carbapenem and colistin-resistant Pseudomonas aeruginosa 91433 clinical isolate assessed as aztreonam MIC at 8 uM by checkerboard assay (reference value: 16 ug/ml)
Pseudomonas aeruginosa [28] = test: Potentiation of aztreonam-induced antibacterial activity against carbapenem-resistant Pseudomonas aeruginosa 262-101856 clinical isolate assessed as aztreonam MIC at 8 uM by checkerboard assay (reference value: 32 ug/ml)
Pseudomonas aeruginosa [29] = test: Potentiation of aztreonam-induced antibacterial activity against carbapenem-resistant Pseudomonas aeruginosa 260-97103 clinical isolate assessed as aztreonam MIC at 8 uM by checkerboard assay (reference value: 64 ug/ml)
Pseudomonas aeruginosa [30] = test: Potentiation of aztreonam-induced antibacterial activity against carbapenem-resistant Pseudomonas aeruginosa 259-96918 clinical isolate expressing metallo-beta-lactamase assessed as aztreonam MIC at 8 uM by checkerboard assay (reference value: 32 ug/ml)
Pseudomonas aeruginosa [31] = test: Potentiation of aztreonam-induced antibacterial activity against wild type Pseudomonas aeruginosa PAO1 assessed as aztreonam MIC at 8 uM by checkerboard assay (reference value: 4 ug/ml)
Pseudomonas aeruginosa [32] = test: Antibacterial activity against Pseudomonas aeruginosa PAO200 harboring mexAB-oprM efflux deficient mutant

Compound	fold change (FC) (Pseudomonas aeruginosa [1])	fold change (FC) (Pseudomonas aeruginosa [2])	fold change (FC) (Pseudomonas aeruginosa [3])	fold change (FC) (Pseudomonas aeruginosa [4])	fold change (FC) (Pseudomonas aeruginosa [5])	fold change (FC) (Pseudomonas aeruginosa [6])	fold change (FC) (Pseudomonas aeruginosa [7])	MIC (Pseudomonas aeruginosa [8])	MIC (Pseudomonas aeruginosa [9])	MIC (Pseudomonas aeruginosa [10])	MIC (Pseudomonas aeruginosa [11])	MIC (Pseudomonas aeruginosa [12])	MIC (Pseudomonas aeruginosa [13])	MIC (Pseudomonas aeruginosa [14])	MIC (Pseudomonas aeruginosa [15])	MIC (Pseudomonas aeruginosa [16])	MIC (Pseudomonas aeruginosa [17])	MIC (Pseudomonas aeruginosa [18])	MIC (Pseudomonas aeruginosa [19])	MIC (Pseudomonas aeruginosa [20])	further results
Cl.Cl.Cl.Cl.Cl.Cl.NC[C@H]1O[C@H](O[C@H]2[C@H](OCCCCCCCCCCCCN3CCN(c4cc5c(cc4F)c(=O)c(C(=O)O)cn5C4CC4)CC3)[C@@H](O[C@H]3O[C@H](CO)[C@@H](O)[C@H](N)[C@H]3O)[C@H](N)C[C@@H]2N)[C@H](N)C[C@@H]1O	16	16	16	16	16	16	16	1 µg/mL	8 µg/mL	2 µg/mL	8 µg/mL	2 µg/mL	4 µg/mL	4 µg/mL	2 µg/mL	0.5 µg/mL	0.03 µg/mL	16 µg/mL	16 µg/mL	1 µg/mL	MIC (Pseudomonas aeruginosa [21]): 2 µg/mL; MIC (Pseudomonas aeruginosa [22]): 16 µg/mL; MIC (Pseudomonas aeruginosa [23]): 4 µg/mL; MIC (Pseudomonas aeruginosa [24]): 16 µg/mL; MIC (Pseudomonas aeruginosa [25]): 8 µg/mL; MIC (Pseudomonas aeruginosa [26]): 4 µg/mL; MIC (Pseudomonas aeruginosa [27]): 4 µg/mL; MIC (Pseudomonas aeruginosa [28]): 4 µg/mL; MIC (Pseudomonas aeruginosa [29]): 4 µg/mL; MIC (Pseudomonas aeruginosa [30]): 8 µg/mL; MIC (Pseudomonas aeruginosa [31]): 0.25 µg/mL; MIC (Pseudomonas aeruginosa [32]): 4 µg/mL
NC[C@H]1O[C@H](O[C@H]2[C@H](OCCCCc3cn(CCCCO[C@@H]4[C@@H](O[C@H]5O[C@H](CO)[C@@H](O)[C@H](N)[C@H]5O)[C@H](N)C[C@H](N)[C@H]4O[C@H]4O[C@H](CN)[C@@H](O)C[C@H]4N)nn3)[C@@H](O[C@H]3O[C@H](CO)[C@@H](O)[C@H](N)[C@H]3O)[C@H](N)C[C@@H]2N)[C@H](N)C[C@@H]1O.O=C(O)C(F)(F)F.O=C(O)C(F)(F)F.O=C(O)C(F)(F)F.O=C(O)C(F)(F)F.O=C(O)C(F)(F)F.O=C(O)C(F)(F)F.O=C(O)C(F)(F)F.O=C(O)C(F)(F)F.O=C(O)C(F)(F)F.O=C(O)C(F)(F)F	16	16	16	16	16	16	16	1 µg/mL	16 µg/mL	4 µg/mL	16 µg/mL	4 µg/mL	4 µg/mL	2 µg/mL	16 µg/mL	1 µg/mL	0.06 µg/mL	32 µg/mL	32 µg/mL	2 µg/mL	MIC (Pseudomonas aeruginosa [21]): 2 µg/mL; MIC (Pseudomonas aeruginosa [22]): 32 µg/mL; MIC (Pseudomonas aeruginosa [23]): 8 µg/mL; MIC (Pseudomonas aeruginosa [24]): 8 µg/mL; MIC (Pseudomonas aeruginosa [25]): 32 µg/mL; MIC (Pseudomonas aeruginosa [26]): 16 µg/mL; MIC (Pseudomonas aeruginosa [27]): 4 µg/mL; MIC (Pseudomonas aeruginosa [28]): 8 µg/mL; MIC (Pseudomonas aeruginosa [29]): 16 µg/mL; MIC (Pseudomonas aeruginosa [30]): 8 µg/mL; MIC (Pseudomonas aeruginosa [31]): 0.25 µg/mL; MIC (Pseudomonas aeruginosa [32]): > 128 µg/mL
